The numbers were not newly measured in US20030215917A1, “Assay for evaluation of activity of compounds against HCV using a novel detection system in the HCV replicon” (priority 2002, published 2003), which cites them from elsewhere.

Data set [1] has as its system Hepatitis B virus (HBV), Hepatitis C virus (HCV), Yellow Fever virus, Dengue Virus, Japanese Encephalitis, West Nile virus and related flaviviruses.
A further data set relates to HCV replicon cells. The conditions noted are these: at high concentration; stated as known.
The test system of the next data set is HCV and HCV replicon. The conditions noted are these: stated as known.

In the case of `O=C1OCc2c1cc1ccc3c(c1c2-c1ccc2c(c1)OCO2)OCO3` [Helioxanthin], the “toxicity to the host cells” value in the data set on host cells is “very low toxicity”. In addition, in data set [1], the activity against viruses entry is “high activity” and the “inhibition of the replication of the virus (viral growth)” value is reported as “potent inhibition”. Moreover, the cytotoxicity effect entry in the data set on HCV replicon cells is reported as “known to have cytotoxicity effect at high concentration”.
Take interferon alpha: the “inhibition of viral replication” value in the data set on HCV and HCV replicon is “known to inhibit viral replication”.
